Each molecule was assayed against ULK2 (human) (UniProt Q8IYT8) (assay: radiometric filter-binding kinase assay, Kinase HotSpot). Details: compound 0.5 µM; ATP 10 µM.

| Compound | residual activity |
| --- | --- |
| Nc1nc(Nc2ccc(S(N)(=O)=O)cc2)nn1C(=S)Nc1c(F)cccc1F | 4.73% |
| Oc1ccc(-c2nc(-c3ccc(F)cc3)c(-c3ccncc3)[nH]2)cc1 | 97.3% |
| Cc1ccc(NC(=O)c2ccc(CN3CCN(C)CC3)cc2)cc1Nc1nc(-c2cccnc2)cs1 | 103% |
| CC(C)[C@H](CO)Nc1nc(Nc2cccc(Cl)c2)c2ncn(C(C)C)c2n1 | 97.7% |

Each molecule was assayed against CSNK1D (human) (UniProt P48730) in the same assay as above. Details: compound 0.5 µM; ATP 10 µM.

| Compound | residual activity |
| --- | --- |
| Nc1nc(Nc2ccc(S(N)(=O)=O)cc2)nn1C(=S)Nc1c(F)cccc1F | 83.7% |
| Oc1ccc(-c2nc(-c3ccc(F)cc3)c(-c3ccncc3)[nH]2)cc1 | 16.8% |
| Cc1ccc(NC(=O)c2ccc(CN3CCN(C)CC3)cc2)cc1Nc1nc(-c2cccnc2)cs1 | 92.7% |
| CC(C)[C@H](CO)Nc1nc(Nc2cccc(Cl)c2)c2ncn(C(C)C)c2n1 | 92.2% |

Each molecule was assayed against RPS6KA4 KD2 (human) (UniProt O75676) in the same assay as above. Details: compound 0.5 µM; ATP 10 µM.
Chain of RPS6KA4 KD2 (human) (O75676 whole entry, looked up): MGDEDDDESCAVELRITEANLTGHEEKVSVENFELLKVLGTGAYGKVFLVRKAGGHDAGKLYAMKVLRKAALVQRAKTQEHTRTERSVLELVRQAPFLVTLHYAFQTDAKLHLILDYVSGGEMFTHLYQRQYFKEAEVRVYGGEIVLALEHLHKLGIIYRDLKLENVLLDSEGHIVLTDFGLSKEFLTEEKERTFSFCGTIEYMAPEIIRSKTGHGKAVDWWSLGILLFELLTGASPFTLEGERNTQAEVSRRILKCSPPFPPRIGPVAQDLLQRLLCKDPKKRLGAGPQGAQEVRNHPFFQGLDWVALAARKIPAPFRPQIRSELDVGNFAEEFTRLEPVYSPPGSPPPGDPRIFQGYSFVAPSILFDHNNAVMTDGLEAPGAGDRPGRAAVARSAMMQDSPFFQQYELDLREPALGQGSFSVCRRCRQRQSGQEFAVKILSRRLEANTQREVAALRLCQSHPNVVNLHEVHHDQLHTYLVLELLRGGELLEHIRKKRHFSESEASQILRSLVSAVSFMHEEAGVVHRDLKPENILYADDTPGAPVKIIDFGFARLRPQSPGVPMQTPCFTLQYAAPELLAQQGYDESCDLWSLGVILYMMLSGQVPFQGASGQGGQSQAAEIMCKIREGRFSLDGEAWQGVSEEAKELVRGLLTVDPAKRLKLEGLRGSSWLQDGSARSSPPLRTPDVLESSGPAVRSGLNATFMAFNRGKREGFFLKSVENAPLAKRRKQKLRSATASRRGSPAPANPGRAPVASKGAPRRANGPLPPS

| Compound | residual activity |
| --- | --- |
| Nc1nc(Nc2ccc(S(N)(=O)=O)cc2)nn1C(=S)Nc1c(F)cccc1F | 42.8% |
| Oc1ccc(-c2nc(-c3ccc(F)cc3)c(-c3ccncc3)[nH]2)cc1 | 95.9% |
| Cc1ccc(NC(=O)c2ccc(CN3CCN(C)CC3)cc2)cc1Nc1nc(-c2cccnc2)cs1 | 101% |
| CC(C)[C@H](CO)Nc1nc(Nc2cccc(Cl)c2)c2ncn(C(C)C)c2n1 | 90.1% |

What follows are molecules tested against EPHA3 (human) (UniProt P29320) in the same assay as above. Details: compound 0.5 µM; ATP 10 µM.

| Compound | residual activity |
| --- | --- |
| Nc1nc(Nc2ccc(S(N)(=O)=O)cc2)nn1C(=S)Nc1c(F)cccc1F | 85.9% |
| Oc1ccc(-c2nc(-c3ccc(F)cc3)c(-c3ccncc3)[nH]2)cc1 | 99% |
| Cc1ccc(NC(=O)c2ccc(CN3CCN(C)CC3)cc2)cc1Nc1nc(-c2cccnc2)cs1 | 90.3% |
| CC(C)[C@H](CO)Nc1nc(Nc2cccc(Cl)c2)c2ncn(C(C)C)c2n1 | 105% |

The molecules below were run against AXL (human) (UniProt P30530) in the same assay as above. Details: compound 0.5 µM; ATP 10 µM.
Chain of AXL (human) (P30530 whole entry, looked up): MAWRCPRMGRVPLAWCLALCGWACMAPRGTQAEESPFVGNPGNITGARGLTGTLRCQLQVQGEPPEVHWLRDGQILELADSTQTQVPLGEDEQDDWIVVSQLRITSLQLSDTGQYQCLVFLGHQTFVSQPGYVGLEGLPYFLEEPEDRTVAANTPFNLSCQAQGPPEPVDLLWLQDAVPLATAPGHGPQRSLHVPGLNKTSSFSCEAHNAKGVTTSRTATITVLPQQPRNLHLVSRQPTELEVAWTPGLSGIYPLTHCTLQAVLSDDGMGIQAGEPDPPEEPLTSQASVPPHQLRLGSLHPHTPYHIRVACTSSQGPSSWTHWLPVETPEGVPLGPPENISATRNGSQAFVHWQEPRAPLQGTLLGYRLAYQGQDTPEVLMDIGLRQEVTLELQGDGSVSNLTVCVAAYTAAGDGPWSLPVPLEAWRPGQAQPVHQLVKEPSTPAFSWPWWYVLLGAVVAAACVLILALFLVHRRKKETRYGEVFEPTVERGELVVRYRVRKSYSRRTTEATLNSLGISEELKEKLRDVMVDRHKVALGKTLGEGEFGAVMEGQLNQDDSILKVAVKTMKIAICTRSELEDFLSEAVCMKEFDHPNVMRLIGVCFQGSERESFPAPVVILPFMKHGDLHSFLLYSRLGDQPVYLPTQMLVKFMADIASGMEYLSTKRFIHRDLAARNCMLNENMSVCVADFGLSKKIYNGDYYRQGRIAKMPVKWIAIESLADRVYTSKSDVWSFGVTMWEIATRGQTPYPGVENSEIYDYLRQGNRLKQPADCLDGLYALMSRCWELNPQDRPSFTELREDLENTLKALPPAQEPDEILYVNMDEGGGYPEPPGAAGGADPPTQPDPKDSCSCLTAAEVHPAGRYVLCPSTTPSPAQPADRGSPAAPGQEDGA

| Compound | residual activity |
| --- | --- |
| Nc1nc(Nc2ccc(S(N)(=O)=O)cc2)nn1C(=S)Nc1c(F)cccc1F | 34.2% |
| Oc1ccc(-c2nc(-c3ccc(F)cc3)c(-c3ccncc3)[nH]2)cc1 | 99.8% |
| Cc1ccc(NC(=O)c2ccc(CN3CCN(C)CC3)cc2)cc1Nc1nc(-c2cccnc2)cs1 | 86.5% |
| CC(C)[C@H](CO)Nc1nc(Nc2cccc(Cl)c2)c2ncn(C(C)C)c2n1 | 94.7% |

These molecules were tested against MAP4K4 (human) (UniProt O95819) in the same assay as above. Details: compound 0.5 µM; ATP 10 µM.
Chain of MAP4K4 (human) (O95819 whole entry, looked up): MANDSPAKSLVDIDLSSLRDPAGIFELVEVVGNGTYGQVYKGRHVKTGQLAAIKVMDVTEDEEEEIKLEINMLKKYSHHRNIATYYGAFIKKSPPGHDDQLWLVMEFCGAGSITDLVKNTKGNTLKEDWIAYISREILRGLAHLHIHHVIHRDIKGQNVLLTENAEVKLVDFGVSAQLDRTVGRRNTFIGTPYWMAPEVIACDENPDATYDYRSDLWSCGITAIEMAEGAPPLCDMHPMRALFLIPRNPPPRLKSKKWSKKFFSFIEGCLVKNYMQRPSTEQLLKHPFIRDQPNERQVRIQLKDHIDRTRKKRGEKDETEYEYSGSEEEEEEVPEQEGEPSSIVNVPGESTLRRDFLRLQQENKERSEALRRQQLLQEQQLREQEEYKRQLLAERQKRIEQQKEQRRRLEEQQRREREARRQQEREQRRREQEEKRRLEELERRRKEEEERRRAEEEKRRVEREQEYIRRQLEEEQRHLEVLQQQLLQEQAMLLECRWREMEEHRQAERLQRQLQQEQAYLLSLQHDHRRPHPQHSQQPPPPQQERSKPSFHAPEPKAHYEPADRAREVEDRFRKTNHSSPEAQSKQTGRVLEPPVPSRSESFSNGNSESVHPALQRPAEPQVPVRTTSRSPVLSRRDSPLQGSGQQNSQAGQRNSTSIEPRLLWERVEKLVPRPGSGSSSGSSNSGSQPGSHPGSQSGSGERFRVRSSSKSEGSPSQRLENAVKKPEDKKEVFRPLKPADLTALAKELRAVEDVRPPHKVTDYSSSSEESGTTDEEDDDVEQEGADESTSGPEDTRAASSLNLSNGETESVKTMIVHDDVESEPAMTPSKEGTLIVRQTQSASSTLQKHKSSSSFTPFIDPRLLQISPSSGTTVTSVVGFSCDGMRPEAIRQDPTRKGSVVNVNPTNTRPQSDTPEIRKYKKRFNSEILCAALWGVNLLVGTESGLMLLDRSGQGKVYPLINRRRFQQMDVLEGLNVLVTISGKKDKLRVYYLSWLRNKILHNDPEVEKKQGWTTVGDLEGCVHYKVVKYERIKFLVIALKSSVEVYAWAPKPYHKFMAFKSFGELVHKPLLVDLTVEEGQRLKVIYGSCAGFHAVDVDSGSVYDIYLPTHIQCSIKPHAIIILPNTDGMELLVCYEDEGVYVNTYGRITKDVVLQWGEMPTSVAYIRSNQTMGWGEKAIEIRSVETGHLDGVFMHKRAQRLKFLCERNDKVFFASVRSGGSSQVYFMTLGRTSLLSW

| Compound | residual activity |
| --- | --- |
| Nc1nc(Nc2ccc(S(N)(=O)=O)cc2)nn1C(=S)Nc1c(F)cccc1F | 4.46% |
| Oc1ccc(-c2nc(-c3ccc(F)cc3)c(-c3ccncc3)[nH]2)cc1 | 86.5% |
| Cc1ccc(NC(=O)c2ccc(CN3CCN(C)CC3)cc2)cc1Nc1nc(-c2cccnc2)cs1 | 72.2% |
| CC(C)[C@H](CO)Nc1nc(Nc2cccc(Cl)c2)c2ncn(C(C)C)c2n1 | 84.9% |

The molecules below were run against ROCK2 (human) (UniProt O75116) in the same assay as above. Details: compound 0.5 µM; ATP 10 µM.

| Compound | residual activity |
| --- | --- |
| Nc1nc(Nc2ccc(S(N)(=O)=O)cc2)nn1C(=S)Nc1c(F)cccc1F | 6.22% |
| Oc1ccc(-c2nc(-c3ccc(F)cc3)c(-c3ccncc3)[nH]2)cc1 | 93.6% |
| Cc1ccc(NC(=O)c2ccc(CN3CCN(C)CC3)cc2)cc1Nc1nc(-c2cccnc2)cs1 | 95.1% |
| CC(C)[C@H](CO)Nc1nc(Nc2cccc(Cl)c2)c2ncn(C(C)C)c2n1 | 100% |

These molecules were tested against ABL2 (human) (UniProt P42684) in the same assay as above. Details: compound 0.5 µM; ATP 10 µM.

| Compound | residual activity |
| --- | --- |
| Nc1nc(Nc2ccc(S(N)(=O)=O)cc2)nn1C(=S)Nc1c(F)cccc1F | 10.5% |
| Oc1ccc(-c2nc(-c3ccc(F)cc3)c(-c3ccncc3)[nH]2)cc1 | 91.1% |
| Cc1ccc(NC(=O)c2ccc(CN3CCN(C)CC3)cc2)cc1Nc1nc(-c2cccnc2)cs1 | 57.7% |
| CC(C)[C@H](CO)Nc1nc(Nc2cccc(Cl)c2)c2ncn(C(C)C)c2n1 | 32.2% |

Each molecule was assayed against CDC42BPA (human) (UniProt Q5VT25) in the same assay as above. Details: compound 0.5 µM; ATP 10 µM.
Chain of CDC42BPA (human) (Q5VT25 whole entry, looked up): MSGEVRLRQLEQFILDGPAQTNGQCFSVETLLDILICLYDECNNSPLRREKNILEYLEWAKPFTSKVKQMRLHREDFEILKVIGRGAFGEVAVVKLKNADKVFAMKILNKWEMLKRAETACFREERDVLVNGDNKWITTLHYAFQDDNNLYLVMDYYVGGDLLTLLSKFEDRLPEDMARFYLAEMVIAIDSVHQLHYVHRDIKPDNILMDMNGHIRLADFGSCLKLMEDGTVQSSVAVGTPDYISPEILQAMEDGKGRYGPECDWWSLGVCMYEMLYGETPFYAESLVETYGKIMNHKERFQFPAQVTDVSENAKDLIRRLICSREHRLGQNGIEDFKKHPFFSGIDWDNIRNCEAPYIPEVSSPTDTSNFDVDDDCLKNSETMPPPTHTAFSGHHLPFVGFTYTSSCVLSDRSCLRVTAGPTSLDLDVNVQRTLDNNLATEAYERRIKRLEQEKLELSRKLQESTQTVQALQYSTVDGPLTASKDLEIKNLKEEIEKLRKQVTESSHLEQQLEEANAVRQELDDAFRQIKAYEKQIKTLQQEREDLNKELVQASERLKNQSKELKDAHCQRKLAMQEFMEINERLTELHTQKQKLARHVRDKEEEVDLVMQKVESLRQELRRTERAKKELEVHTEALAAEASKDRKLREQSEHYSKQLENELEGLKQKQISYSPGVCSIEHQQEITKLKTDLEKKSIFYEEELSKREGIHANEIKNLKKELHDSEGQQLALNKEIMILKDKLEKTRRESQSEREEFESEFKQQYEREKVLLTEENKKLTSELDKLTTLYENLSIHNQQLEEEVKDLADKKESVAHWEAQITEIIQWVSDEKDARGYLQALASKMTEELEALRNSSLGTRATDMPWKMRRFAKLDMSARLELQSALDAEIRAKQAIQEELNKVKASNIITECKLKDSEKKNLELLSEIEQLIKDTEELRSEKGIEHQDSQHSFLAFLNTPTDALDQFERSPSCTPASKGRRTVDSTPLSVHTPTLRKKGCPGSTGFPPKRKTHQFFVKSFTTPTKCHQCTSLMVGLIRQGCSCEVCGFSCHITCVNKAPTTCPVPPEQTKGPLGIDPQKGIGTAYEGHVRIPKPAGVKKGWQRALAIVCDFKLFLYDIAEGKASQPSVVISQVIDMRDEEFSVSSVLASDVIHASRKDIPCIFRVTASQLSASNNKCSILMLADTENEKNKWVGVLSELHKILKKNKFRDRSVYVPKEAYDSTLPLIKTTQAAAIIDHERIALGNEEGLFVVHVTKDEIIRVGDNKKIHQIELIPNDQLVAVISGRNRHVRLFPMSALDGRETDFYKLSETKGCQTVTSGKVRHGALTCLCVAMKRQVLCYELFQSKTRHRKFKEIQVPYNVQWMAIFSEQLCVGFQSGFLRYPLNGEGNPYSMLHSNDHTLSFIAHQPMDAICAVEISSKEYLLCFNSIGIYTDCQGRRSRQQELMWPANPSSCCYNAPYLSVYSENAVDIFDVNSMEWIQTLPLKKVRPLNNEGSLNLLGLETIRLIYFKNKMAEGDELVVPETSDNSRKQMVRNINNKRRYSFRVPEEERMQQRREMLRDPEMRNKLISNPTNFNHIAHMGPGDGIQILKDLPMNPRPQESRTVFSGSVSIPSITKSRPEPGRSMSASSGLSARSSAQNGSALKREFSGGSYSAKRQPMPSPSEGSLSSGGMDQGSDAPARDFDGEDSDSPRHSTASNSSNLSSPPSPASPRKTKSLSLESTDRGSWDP

| Compound | residual activity |
| --- | --- |
| Nc1nc(Nc2ccc(S(N)(=O)=O)cc2)nn1C(=S)Nc1c(F)cccc1F | 54.6% |
| Oc1ccc(-c2nc(-c3ccc(F)cc3)c(-c3ccncc3)[nH]2)cc1 | 94% |
| Cc1ccc(NC(=O)c2ccc(CN3CCN(C)CC3)cc2)cc1Nc1nc(-c2cccnc2)cs1 | 104% |
| CC(C)[C@H](CO)Nc1nc(Nc2cccc(Cl)c2)c2ncn(C(C)C)c2n1 | 92.3% |

The molecules below were run against MAPK10 (human) (UniProt P53779) in the same assay as above. Details: compound 0.5 µM; ATP 10 µM.

| Compound | residual activity |
| --- | --- |
| Nc1nc(Nc2ccc(S(N)(=O)=O)cc2)nn1C(=S)Nc1c(F)cccc1F | 105% |
| Oc1ccc(-c2nc(-c3ccc(F)cc3)c(-c3ccncc3)[nH]2)cc1 | 117% |
| Cc1ccc(NC(=O)c2ccc(CN3CCN(C)CC3)cc2)cc1Nc1nc(-c2cccnc2)cs1 | 94.2% |
| CC(C)[C@H](CO)Nc1nc(Nc2cccc(Cl)c2)c2ncn(C(C)C)c2n1 | 96.7% |

The molecules below were run against CSNK2A1 (human) (UniProt P68400) in the same assay as above. Details: compound 0.5 µM; ATP 10 µM.

| Compound | residual activity |
| --- | --- |
| Nc1nc(Nc2ccc(S(N)(=O)=O)cc2)nn1C(=S)Nc1c(F)cccc1F | 76.6% |
| Oc1ccc(-c2nc(-c3ccc(F)cc3)c(-c3ccncc3)[nH]2)cc1 | 92.4% |
| Cc1ccc(NC(=O)c2ccc(CN3CCN(C)CC3)cc2)cc1Nc1nc(-c2cccnc2)cs1 | 99.2% |
| CC(C)[C@H](CO)Nc1nc(Nc2cccc(Cl)c2)c2ncn(C(C)C)c2n1 | 101% |

The molecules below were run against EPHA5 (human) (UniProt P54756) in the same assay as above. Details: compound 0.5 µM; ATP 10 µM.

| Compound | residual activity |
| --- | --- |
| Nc1nc(Nc2ccc(S(N)(=O)=O)cc2)nn1C(=S)Nc1c(F)cccc1F | 56.7% |
| Oc1ccc(-c2nc(-c3ccc(F)cc3)c(-c3ccncc3)[nH]2)cc1 | 90.7% |
| Cc1ccc(NC(=O)c2ccc(CN3CCN(C)CC3)cc2)cc1Nc1nc(-c2cccnc2)cs1 | 104% |
| CC(C)[C@H](CO)Nc1nc(Nc2cccc(Cl)c2)c2ncn(C(C)C)c2n1 | 87.9% |

What follows are molecules tested against CSNK1G2 (human) (UniProt P78368) in the same assay as above. Details: compound 0.5 µM; ATP 10 µM.

| Compound | residual activity |
| --- | --- |
| Nc1nc(Nc2ccc(S(N)(=O)=O)cc2)nn1C(=S)Nc1c(F)cccc1F | 14.8% |
| Oc1ccc(-c2nc(-c3ccc(F)cc3)c(-c3ccncc3)[nH]2)cc1 | 91.9% |
| Cc1ccc(NC(=O)c2ccc(CN3CCN(C)CC3)cc2)cc1Nc1nc(-c2cccnc2)cs1 | 92.9% |
| CC(C)[C@H](CO)Nc1nc(Nc2cccc(Cl)c2)c2ncn(C(C)C)c2n1 | 32.4% |

These molecules were tested against HIPK4 (human) (UniProt Q8NE63) in the same assay as above. Details: compound 0.5 µM; ATP 10 µM.

| Compound | residual activity |
| --- | --- |
| Nc1nc(Nc2ccc(S(N)(=O)=O)cc2)nn1C(=S)Nc1c(F)cccc1F | 50.6% |
| Oc1ccc(-c2nc(-c3ccc(F)cc3)c(-c3ccncc3)[nH]2)cc1 | 89.7% |
| Cc1ccc(NC(=O)c2ccc(CN3CCN(C)CC3)cc2)cc1Nc1nc(-c2cccnc2)cs1 | 101% |
| CC(C)[C@H](CO)Nc1nc(Nc2cccc(Cl)c2)c2ncn(C(C)C)c2n1 | 88.7% |

Each molecule was assayed against PRKCE (human) (UniProt Q02156) in the same assay as above. Details: compound 0.5 µM; ATP 10 µM.

| Compound | residual activity |
| --- | --- |
| Nc1nc(Nc2ccc(S(N)(=O)=O)cc2)nn1C(=S)Nc1c(F)cccc1F | 11.5% |
| Oc1ccc(-c2nc(-c3ccc(F)cc3)c(-c3ccncc3)[nH]2)cc1 | 96% |
| Cc1ccc(NC(=O)c2ccc(CN3CCN(C)CC3)cc2)cc1Nc1nc(-c2cccnc2)cs1 | 100% |
| CC(C)[C@H](CO)Nc1nc(Nc2cccc(Cl)c2)c2ncn(C(C)C)c2n1 | 115% |

Each molecule was assayed against MYLK2 (human) (UniProt Q9H1R3) in the same assay as above. Details: compound 0.5 µM; ATP 10 µM.

| Compound | residual activity |
| --- | --- |
| Nc1nc(Nc2ccc(S(N)(=O)=O)cc2)nn1C(=S)Nc1c(F)cccc1F | 66.6% |
| Oc1ccc(-c2nc(-c3ccc(F)cc3)c(-c3ccncc3)[nH]2)cc1 | 93.5% |
| Cc1ccc(NC(=O)c2ccc(CN3CCN(C)CC3)cc2)cc1Nc1nc(-c2cccnc2)cs1 | 98.7% |
| CC(C)[C@H](CO)Nc1nc(Nc2cccc(Cl)c2)c2ncn(C(C)C)c2n1 | 97.1% |

The molecules below were run against NEK3 (human) (UniProt P51956) in the same assay as above. Details: compound 0.5 µM; ATP 10 µM.

| Compound | residual activity |
| --- | --- |
| Nc1nc(Nc2ccc(S(N)(=O)=O)cc2)nn1C(=S)Nc1c(F)cccc1F | 19.6% |
| Oc1ccc(-c2nc(-c3ccc(F)cc3)c(-c3ccncc3)[nH]2)cc1 | 99.3% |
| Cc1ccc(NC(=O)c2ccc(CN3CCN(C)CC3)cc2)cc1Nc1nc(-c2cccnc2)cs1 | 99.4% |
| CC(C)[C@H](CO)Nc1nc(Nc2cccc(Cl)c2)c2ncn(C(C)C)c2n1 | 94.2% |

What follows are molecules tested against ADRBK1 (human) (UniProt P25098) in the same assay as above. Details: compound 0.5 µM; ATP 10 µM.

| Compound | residual activity |
| --- | --- |
| Nc1nc(Nc2ccc(S(N)(=O)=O)cc2)nn1C(=S)Nc1c(F)cccc1F | 97.8% |
| Oc1ccc(-c2nc(-c3ccc(F)cc3)c(-c3ccncc3)[nH]2)cc1 | 101% |
| Cc1ccc(NC(=O)c2ccc(CN3CCN(C)CC3)cc2)cc1Nc1nc(-c2cccnc2)cs1 | 121% |
| CC(C)[C@H](CO)Nc1nc(Nc2cccc(Cl)c2)c2ncn(C(C)C)c2n1 | 103% |

These molecules were tested against STK24 (human) (UniProt Q9Y6E0) in the same assay as above. Details: compound 0.5 µM; ATP 10 µM.

| Compound | residual activity |
| --- | --- |
| Nc1nc(Nc2ccc(S(N)(=O)=O)cc2)nn1C(=S)Nc1c(F)cccc1F | 2.88% |
| Oc1ccc(-c2nc(-c3ccc(F)cc3)c(-c3ccncc3)[nH]2)cc1 | 95.2% |
| Cc1ccc(NC(=O)c2ccc(CN3CCN(C)CC3)cc2)cc1Nc1nc(-c2cccnc2)cs1 | 104% |
| CC(C)[C@H](CO)Nc1nc(Nc2cccc(Cl)c2)c2ncn(C(C)C)c2n1 | 80.8% |

The molecules below were run against CDK2 CCNE1 (human) (UniProt P24941+P24864) in the same assay as above. Details: compound 0.5 µM; ATP 10 µM.
Chain of CDK2 CCNE1 (human) (P24864 whole entry, looked up, other chains not shown): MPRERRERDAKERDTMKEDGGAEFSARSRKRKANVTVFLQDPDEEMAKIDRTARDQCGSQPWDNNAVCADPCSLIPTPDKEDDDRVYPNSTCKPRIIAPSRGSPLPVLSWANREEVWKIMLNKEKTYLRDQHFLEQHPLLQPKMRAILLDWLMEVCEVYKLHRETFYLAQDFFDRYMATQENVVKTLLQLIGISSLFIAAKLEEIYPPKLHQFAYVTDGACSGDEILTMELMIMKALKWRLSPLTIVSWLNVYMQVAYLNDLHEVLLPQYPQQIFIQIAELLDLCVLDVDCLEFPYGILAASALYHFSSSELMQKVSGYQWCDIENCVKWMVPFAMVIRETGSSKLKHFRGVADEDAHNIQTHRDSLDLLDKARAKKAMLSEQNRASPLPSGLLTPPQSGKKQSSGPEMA

| Compound | residual activity |
| --- | --- |
| Nc1nc(Nc2ccc(S(N)(=O)=O)cc2)nn1C(=S)Nc1c(F)cccc1F | 8.92% |
| Oc1ccc(-c2nc(-c3ccc(F)cc3)c(-c3ccncc3)[nH]2)cc1 | 90.6% |
| Cc1ccc(NC(=O)c2ccc(CN3CCN(C)CC3)cc2)cc1Nc1nc(-c2cccnc2)cs1 | 95% |
| CC(C)[C@H](CO)Nc1nc(Nc2cccc(Cl)c2)c2ncn(C(C)C)c2n1 | 9.88% |

The molecules below were run against DYRK2 (human) (UniProt Q92630) in the same assay as above. Details: compound 0.5 µM; ATP 10 µM.

| Compound | residual activity |
| --- | --- |
| Nc1nc(Nc2ccc(S(N)(=O)=O)cc2)nn1C(=S)Nc1c(F)cccc1F | 60.4% |
| Oc1ccc(-c2nc(-c3ccc(F)cc3)c(-c3ccncc3)[nH]2)cc1 | 99.3% |

From the kinase profiling compilation of Christmann-Franck et al. (2016)
